The values that follow come from patent publication US4740504A, “Antihyperlipidemic amine boranes” (United States Borax & Chemical Corp., priority 1987, dated 1988).

Read-outs that look alike come from different tables or passages of the source.

One test concerns male CF1 mice. The test can be described thus: Hypolipidemic activity in CF1 mice, intraperitoneal dosing (serum cholesterol and triglyceride). In kind it is in vivo. Particulars: Mus musculus, ip, male CF1 mice; for response vs control in vivo at 20 mg/kg / response vs control in vivo at 5 mg/kg: Table I; for response vs control in vivo at 20 mg/kg: 20 mg./kg./day i.p.; for response vs control in vivo at 8 mg/kg: Table II, 8 mg./kg./day i.p.; for response vs control in vivo at 5 mg/kg: 5 mg./kg./day i.p. The protocol:
For determining hypolipidemic activity, the compounds were suspended in an aqueous 1% carboxymethylcellulose solution and tested at 5 or 20 mg./kg./day administered intraperitoneally to male CF1 mice (~25 g.). On days 9 and 16 blood was collected by tail vein bleeding and the serum separated by centrifugation for three minutes. Serum cholesterol levels were determined by a modified Liebermann-Burchard reaction. Serum triglyceride levels were also determined at 16 days using a Fisher-Hycel Triglyceride Test Kit.
The test was repeated at a dosage of 8 mg./kg./day.
N-n-Octadecyl-N,N-dimethylamine borane was suspended in an aqueous 1% carboxymethylcellulose solution, homogenized, and administered to CF1 male mice (~25 g.) intraperitoneally for 16 days or Sprague Dawley male rats (~350 g.) orally by an intubation needle for 14 days. On days 9 and 14 or 16, blood was obtained by tail vein bleeding and the serum separated by centrifugation for 3 minutes. The serum cholesterol levels were determined by a modification of the Liebermann-Burchard reaction. Serum was also collected on day 14 or 16 and the triglyceride content was determined by a Fisher-Hycel Triglyceride Test Kit.

For test [1] the following is noted: dose of 5-20 mg/kg/day; Hall et al., J. Pharm. Sci. 70, 339-341 (1981); cited from earlier work.
Another test relates to mice. The following applies: cited from earlier work.
Test [2] deals with T1, ATP dependent citrate lyase (Mus musculus, UniProt Q91V92).
T1 construct: from tissue
T1 sequence (Q91V92 1-1091): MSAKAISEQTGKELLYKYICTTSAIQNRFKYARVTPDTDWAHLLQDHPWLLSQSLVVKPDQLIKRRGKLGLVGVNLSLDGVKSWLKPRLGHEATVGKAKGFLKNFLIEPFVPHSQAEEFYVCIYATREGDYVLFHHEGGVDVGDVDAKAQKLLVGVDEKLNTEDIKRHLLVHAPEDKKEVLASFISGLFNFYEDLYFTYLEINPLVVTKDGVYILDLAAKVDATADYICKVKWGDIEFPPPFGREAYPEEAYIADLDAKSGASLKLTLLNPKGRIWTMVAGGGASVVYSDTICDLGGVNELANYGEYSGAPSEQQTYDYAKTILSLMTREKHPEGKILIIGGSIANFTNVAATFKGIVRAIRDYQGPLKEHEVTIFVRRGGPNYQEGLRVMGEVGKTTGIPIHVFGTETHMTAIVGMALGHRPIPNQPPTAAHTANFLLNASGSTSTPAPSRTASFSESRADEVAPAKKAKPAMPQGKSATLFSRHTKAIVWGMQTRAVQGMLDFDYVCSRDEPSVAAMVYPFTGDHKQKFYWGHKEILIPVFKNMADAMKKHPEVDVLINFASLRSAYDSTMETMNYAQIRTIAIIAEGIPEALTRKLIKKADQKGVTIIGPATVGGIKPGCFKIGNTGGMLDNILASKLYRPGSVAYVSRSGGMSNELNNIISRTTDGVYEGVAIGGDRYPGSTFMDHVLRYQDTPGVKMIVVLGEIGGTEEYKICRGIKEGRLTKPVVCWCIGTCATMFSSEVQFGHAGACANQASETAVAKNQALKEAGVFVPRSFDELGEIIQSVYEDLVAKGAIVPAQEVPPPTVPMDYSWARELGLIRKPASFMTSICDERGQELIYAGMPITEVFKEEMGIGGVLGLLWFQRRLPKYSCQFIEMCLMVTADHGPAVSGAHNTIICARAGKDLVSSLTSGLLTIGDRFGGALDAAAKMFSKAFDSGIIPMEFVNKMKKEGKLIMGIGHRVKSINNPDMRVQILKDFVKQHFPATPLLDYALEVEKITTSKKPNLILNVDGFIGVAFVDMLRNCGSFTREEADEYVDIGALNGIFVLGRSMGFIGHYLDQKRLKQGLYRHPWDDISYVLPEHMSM
Particulars: in vivo; Hall et al. 1984; cited from earlier work.

A further test addresses T2, acetyl CoA synthetase (Mus musculus, UniProt Q9QXG4).
T2 construct: from tissue
Particulars: in vivo; Hall et al. 1984; cited from earlier work.

Test [3] relates to phosphatidate phosphohydrolase. The following applies: in vivo; Hall et al. 1984; cited from earlier work.
[4] abbreviates: 216 h, day 9, read-out: Serum Cholesterol Day 9.
[5] abbreviates: 384 h, day 16, read-out: Serum Cholesterol Day 16.
The mark [6] stands for this setting: 384 h, day 16, read-out: Serum Triglyceride Day 16.

T2 sequence (Q9QXG4 whole entry): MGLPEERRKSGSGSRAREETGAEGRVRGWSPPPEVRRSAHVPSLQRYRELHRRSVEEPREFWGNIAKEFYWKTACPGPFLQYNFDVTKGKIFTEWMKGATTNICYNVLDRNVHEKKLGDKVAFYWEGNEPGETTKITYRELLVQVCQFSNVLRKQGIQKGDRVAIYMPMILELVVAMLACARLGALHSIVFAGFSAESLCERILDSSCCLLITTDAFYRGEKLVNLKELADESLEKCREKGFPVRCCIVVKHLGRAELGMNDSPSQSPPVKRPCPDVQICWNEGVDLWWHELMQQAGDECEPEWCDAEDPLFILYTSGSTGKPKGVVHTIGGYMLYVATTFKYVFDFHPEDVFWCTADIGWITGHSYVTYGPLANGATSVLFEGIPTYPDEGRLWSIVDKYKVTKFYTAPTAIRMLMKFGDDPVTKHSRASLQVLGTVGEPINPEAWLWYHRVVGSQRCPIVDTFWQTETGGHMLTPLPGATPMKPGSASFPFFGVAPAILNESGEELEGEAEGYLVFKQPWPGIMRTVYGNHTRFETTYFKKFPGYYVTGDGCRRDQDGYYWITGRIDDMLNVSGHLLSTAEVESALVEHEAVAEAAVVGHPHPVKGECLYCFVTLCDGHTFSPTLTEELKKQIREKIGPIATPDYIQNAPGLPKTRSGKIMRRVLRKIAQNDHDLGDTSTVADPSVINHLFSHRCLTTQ

For the compound `[BH3-][N+](C)(C)CCCCCCCC` [II, N-octyl-N,N-dimethylamine borane], the response vs control in vivo at 20 mg/kg turned out to be 66% in the test on male CF1 mice (setting [4]), 69% in the test on male CF1 mice (setting [5]) and 75% in the test on male CF1 mice (setting [6]). For the same compound, the values for the response vs control in vivo at 8 mg/kg in the test on male CF1 mice (setting [4]), in the test on male CF1 mice (setting [5]) and in the test on male CF1 mice (setting [6]) were 81%, 73% and 74%, respectively.
Consider `[BH3-][N+](C)(C)CCCCCCCCCCC` [IV, N--undecyl-N,N--dimethylamine borane], for which the values for the response vs control in vivo at 5 mg/kg in the test on male CF1 mice (setting [4]), with male CF1 mice (setting [5]) and in the test with male CF1 mice (setting [6]) were 68%, 63% and 82%, respectively. Moreover, the response vs control in vivo at 8 mg/kg amounted to 82% in the test with male CF1 mice (setting [4]), 68% in the test with male CF1 mice (setting [5]) and 75% with male CF1 mice (setting [6]).
Turning to `[BH3-][N+](C)(C)CCCCCCCCCCCC` [IX, N--dodecyl-N,N--dimethylamine borane], the response vs control in vivo at 20 mg/kg with male CF1 mice (setting [4]) came out at 103%; in the test with male CF1 mice (setting [5]) it was 97%; in the test on male CF1 mice (setting [6]) it was 90%. For the same compound, the response vs control in vivo at 8 mg/kg in the test on male CF1 mice (setting [4]) was 75%; in the test on male CF1 mice (setting [5]) it was 74%; with male CF1 mice (setting [6]), 94%.
In the case of `[BH3-][N+](C)(C)CCCCCCCCCCCCC` [V, N--tridecyl-N,N--dimethylamine borane], the response vs control in vivo at 20 mg/kg in the test with male CF1 mice (setting [4]) was determined as 88%; in the test on male CF1 mice (setting [5]), 65%; in the test on male CF1 mice (setting [6]), 57%. Further, the response vs control in vivo at 8 mg/kg with male CF1 mice (setting [4]) came out at 86%; with male CF1 mice (setting [5]), 84%; in the test with male CF1 mice (setting [6]) it was 76%.
As for `[BH3-][N+](C)(C)CCCCCCCCCCCCCCC` [VI, N--pentadecyl-N,N--dimethylamine borane], the response vs control in vivo at 20 mg/kg with male CF1 mice (setting [4]) amounted to 86%; in the test with male CF1 mice (setting [5]), 64%; with male CF1 mice (setting [6]), 70%. Further, the response vs control in vivo at 8 mg/kg came to 81% in the test on male CF1 mice (setting [4]), 66% in the test on male CF1 mice (setting [5]) and 77% in the test with male CF1 mice (setting [6]).
In the case of `[BH3-][N+](C)(C)CCCCCCCCCCCCCC` [VII, N--tetradecyl-N,N--dimethylamine borane], the values for the response vs control in vivo at 20 mg/kg in the test on male CF1 mice (setting [4]), in the test on male CF1 mice (setting [5]) and in the test with male CF1 mice (setting [6]) were 79%, 60% and 102%, respectively. Moreover, the response vs control in vivo at 8 mg/kg in the test with male CF1 mice (setting [4]) came out at 80%; with male CF1 mice (setting [5]), 67%; with male CF1 mice (setting [6]), 80%.
Turning to `[BH3-][N+](C)(C)CCCCCCCCCCCCCCCC` [VIII, N--hexadecyl-N,N--dimethylamine borane], the response vs control in vivo at 20 mg/kg in the test with male CF1 mice (setting [4]) was 74%; in the test on male CF1 mice (setting [5]), 62%; in the test with male CF1 mice (setting [6]), 72%. Further, the response vs control in vivo at 8 mg/kg in the test with male CF1 mice (setting [4]) was 79%; in the test on male CF1 mice (setting [5]), 59%; with male CF1 mice (setting [6]), 41%.
`[BH3-][N+](C)(C)CCCCCC` [X, N-- -n-hexyl-N,N--dimethylamine borane]: the response vs control in vivo at 20 mg/kg turned out to be 66% in the test on male CF1 mice (setting [4]), 48% in the test with male CF1 mice (setting [5]) and 71% with male CF1 mice (setting [6]). For the same compound, the results for the response vs control in vivo at 8 mg/kg in the test on male CF1 mice (setting [4]), in the test on male CF1 mice (setting [5]) and with male CF1 mice (setting [6]) were 73%, 69% and 80%, respectively.
Take `[BH3-][N+](C)(C)CCCC` [XI, N-- -n-butyl-N,N--dimethylamine borane]: the response vs control in vivo at 20 mg/kg in the test on male CF1 mice (setting [4]) was found to be 72%; in the test with male CF1 mice (setting [5]), 62%; in the test with male CF1 mice (setting [6]), 68%. Moreover, the response vs control in vivo at 8 mg/kg was determined as 88% in the test on male CF1 mice (setting [4]), 64% with male CF1 mice (setting [5]) and 72% in the test on male CF1 mice (setting [6]).
Take `[BH3-][N+](C)(C)CCCCCCCCCC` [XII, N--decyl-N,N--dimethylamine borane]: the values for the response vs control in vivo at 20 mg/kg in the test on male CF1 mice (setting [4]), in the test with male CF1 mice (setting [5]) and with male CF1 mice (setting [6]) were 51%, 46% and 76%, respectively. Also, the figures for the response vs control in vivo at 8 mg/kg in the test on male CF1 mice (setting [4]), with male CF1 mice (setting [5]) and in the test on male CF1 mice (setting [6]) were 77%, 77% and 79%, respectively.
As for `[BH3-][N+](C)(C)Cc1ccccc1` [XIII, N--benzyl-N,N--dimethylamine borane], the results for the response vs control in vivo at 20 mg/kg in the test with male CF1 mice (setting [4]), with male CF1 mice (setting [5]) and with male CF1 mice (setting [6]) were 95%, 71% and 60%, respectively. Besides, the values for the response vs control in vivo at 8 mg/kg in the test with male CF1 mice (setting [4]), with male CF1 mice (setting [5]) and with male CF1 mice (setting [6]) were 73%, 65% and 53%, respectively.
For the compound `C[N+](C)(C)[BH2-]C(=O)O` [trimethylamine carboxyborane], the “hypolipidemic activity (printed: hyperlipidemic)” value in test [1] is reported as “potent hyperlipidemic activity”.
In the case of “tetrakis-μ-(trimethylamine-borane carboxyato)-bis(trimethylamine-carboxyborane)-dicopper (II)”, in the test with mice (2.5 mg/kg in mice, Hall et al., J. Pharm. Sci. 73, 973-977 (1984)), the hypolipidemic activity entry was “potent hypolipidemic agent”. Also, the “cholesterol excretion from the body” value with mice (Hall et al. 1984) was “accelerate cholesterol excretion”. In addition, in test [2], the “effect on ATP dependent citrate lyase” value is “lower”. Besides, the “effect on acetyl CoA synthetase” value at acetyl CoA synthetase is recorded as “lower”. The “effect on phosphatidate phosphohydrolase” value in test [3] is listed as “lower”.
